{"source": "patent US20260041744A1", "about": "“Methods for Treating Pompe Disease” (Amicus Therapeutics, Inc., priority 2022, published 2026)", "key": {"CIMPR": {"biological_target": "CIMPR (Homo sapiens, UniProt P11717)", "sequence (P11717 41-2491, species assumed)": "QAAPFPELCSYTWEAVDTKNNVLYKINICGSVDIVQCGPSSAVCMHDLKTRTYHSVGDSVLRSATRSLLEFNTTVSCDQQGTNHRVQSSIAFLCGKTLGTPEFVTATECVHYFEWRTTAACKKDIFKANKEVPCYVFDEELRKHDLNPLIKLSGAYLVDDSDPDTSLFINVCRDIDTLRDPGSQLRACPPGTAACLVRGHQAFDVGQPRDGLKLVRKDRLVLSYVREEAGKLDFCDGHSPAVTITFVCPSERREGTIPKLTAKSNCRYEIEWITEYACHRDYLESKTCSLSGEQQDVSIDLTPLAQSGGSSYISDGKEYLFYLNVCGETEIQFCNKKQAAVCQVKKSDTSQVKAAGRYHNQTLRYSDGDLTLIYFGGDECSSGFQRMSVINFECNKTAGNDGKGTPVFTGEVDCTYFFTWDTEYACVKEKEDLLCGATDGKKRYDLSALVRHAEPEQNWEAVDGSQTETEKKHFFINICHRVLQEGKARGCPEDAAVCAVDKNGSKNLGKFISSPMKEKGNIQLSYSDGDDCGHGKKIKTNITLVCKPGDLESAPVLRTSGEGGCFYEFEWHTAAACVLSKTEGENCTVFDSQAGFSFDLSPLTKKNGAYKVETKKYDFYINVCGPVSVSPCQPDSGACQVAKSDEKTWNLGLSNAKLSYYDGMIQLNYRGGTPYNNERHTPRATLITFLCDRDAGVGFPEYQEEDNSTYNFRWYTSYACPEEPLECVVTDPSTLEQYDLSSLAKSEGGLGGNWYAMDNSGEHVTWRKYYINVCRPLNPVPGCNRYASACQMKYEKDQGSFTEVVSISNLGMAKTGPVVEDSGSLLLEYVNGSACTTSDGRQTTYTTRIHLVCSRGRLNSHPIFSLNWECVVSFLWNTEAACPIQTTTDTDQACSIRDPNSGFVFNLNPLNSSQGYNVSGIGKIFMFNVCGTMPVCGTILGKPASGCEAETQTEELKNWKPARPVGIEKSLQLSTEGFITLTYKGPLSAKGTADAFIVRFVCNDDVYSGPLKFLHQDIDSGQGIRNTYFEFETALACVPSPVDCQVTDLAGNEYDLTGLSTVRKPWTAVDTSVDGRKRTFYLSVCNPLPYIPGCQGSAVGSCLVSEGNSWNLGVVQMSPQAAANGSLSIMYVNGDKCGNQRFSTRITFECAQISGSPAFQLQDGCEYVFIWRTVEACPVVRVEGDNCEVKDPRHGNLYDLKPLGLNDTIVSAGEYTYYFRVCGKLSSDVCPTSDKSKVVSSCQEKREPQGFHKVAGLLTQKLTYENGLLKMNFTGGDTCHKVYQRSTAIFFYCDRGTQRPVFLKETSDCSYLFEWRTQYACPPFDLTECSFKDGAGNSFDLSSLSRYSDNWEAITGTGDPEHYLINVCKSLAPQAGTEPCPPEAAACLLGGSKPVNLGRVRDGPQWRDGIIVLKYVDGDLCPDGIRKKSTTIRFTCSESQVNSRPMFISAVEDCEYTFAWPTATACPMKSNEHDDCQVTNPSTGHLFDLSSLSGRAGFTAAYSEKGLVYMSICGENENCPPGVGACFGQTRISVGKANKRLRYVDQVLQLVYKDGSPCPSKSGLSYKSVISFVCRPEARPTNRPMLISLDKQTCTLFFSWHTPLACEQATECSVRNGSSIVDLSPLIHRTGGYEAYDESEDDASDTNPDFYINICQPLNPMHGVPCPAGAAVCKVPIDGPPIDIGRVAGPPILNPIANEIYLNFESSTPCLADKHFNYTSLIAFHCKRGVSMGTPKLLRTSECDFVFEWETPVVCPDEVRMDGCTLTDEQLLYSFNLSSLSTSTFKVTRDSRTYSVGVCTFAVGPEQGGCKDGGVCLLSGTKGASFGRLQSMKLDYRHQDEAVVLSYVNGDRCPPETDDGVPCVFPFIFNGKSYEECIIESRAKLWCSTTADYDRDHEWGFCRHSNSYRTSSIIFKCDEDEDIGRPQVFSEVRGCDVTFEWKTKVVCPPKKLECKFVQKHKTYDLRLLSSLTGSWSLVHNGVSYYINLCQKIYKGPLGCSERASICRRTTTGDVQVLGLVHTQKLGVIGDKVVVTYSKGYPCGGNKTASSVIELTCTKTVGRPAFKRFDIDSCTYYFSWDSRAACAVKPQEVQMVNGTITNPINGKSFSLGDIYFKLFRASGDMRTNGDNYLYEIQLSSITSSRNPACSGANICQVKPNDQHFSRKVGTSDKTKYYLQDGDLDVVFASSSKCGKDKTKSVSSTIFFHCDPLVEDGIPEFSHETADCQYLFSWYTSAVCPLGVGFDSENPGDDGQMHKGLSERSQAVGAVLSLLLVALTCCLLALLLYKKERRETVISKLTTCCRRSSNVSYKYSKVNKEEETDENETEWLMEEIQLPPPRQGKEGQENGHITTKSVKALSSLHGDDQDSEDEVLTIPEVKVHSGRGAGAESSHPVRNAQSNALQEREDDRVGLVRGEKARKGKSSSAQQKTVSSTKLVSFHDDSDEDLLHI", "test": "CIMPR Overlay Assay (far-western blot)", "assay_type": "binding", "procedure": "The CIMPR Overlay Assay is a variation on a far-western blot where proteins are separated on an SDS-PAGE, transferred to a nitrocellulose membrane, and incubated with purified CIMPR in the place of a primary antibody as in a conventional western blot. Binding of CIMPR to M6P-containing glycans on rhGAA proteins is then visualized by an anti-CIMPR antibody."}, "[1]": {"system": "adult subjects with late-onset Pompe disease (LOPD)", "test": "Study ATB200-03 (PROPEL): sitting % predicted FVC", "assay_type": "in vivo, human", "settings": "for absolute decline in percent-predicted FVC: 52 weeks; for CHG to Week 52 in sitting % predicted FVC, LS Mean: MMRM, actual time point of assessments; for Sitting % predicted FVC CHG, LS means (SE): Week 52, ANCOVA", "procedure": "The test for the primary endpoint was conducted first at the 1-sided 0.025 significance level, and if significant, the ordered key secondary endpoints were similarly tested at the same significance level. The statistical significance of the key secondary endpoints was interpreted following a hierarchical testing order, each at the 1-sided alpha level of 0.025. […] Primary analyses of efficacy were performed using the mixed-effect model for repeated measures (MMRM) for 6MWD in Intent-to-treat Observed Population (ITT) that includes all available, observed data without any missing data imputation (ITT-OBS) and analysis of covariance (ANCOVA) for all other endpoints in the Intent-to-Treat-Last Observation Carried Forward (ITT-LOCF) Population. A nonparametric randomization based ANCOVA was specified as the first sensitivity analysis for 6MWD and FVC. […] For the purposes of data presentation in this document, 2-sided p-values are reported hereafter, except as otherwise noted."}, "[2]": {"system": "subjects with late-onset Pompe disease (LOPD)", "settings": "systematic review, 368 LOPD subjects (Toscano and Schoser); cited from earlier work"}, "[3]": {"settings": "Baseline, ITT, ERT-naïve Population excluding Subject 4005-2511"}, "[4]": {"settings": "Week 52-LOCF, ERT-experienced Population"}, "[5]": {"settings": "Week 52-LOCF, ERT-naïve Population excluding Subject 4005-2511"}, "[6]": {"settings": "Week 52-LOCF, ITT excluding Subject 4005-2511"}}, "data": [{"substance": "alglucosidase alfa [reference compound]", "values": [{"measurement": "CIMPR binding in overlay assay", "setting": "CIMPR", "value": "a band with a much lower intensity"}, {"measurement": "Sitting % Predicted FVC Absolute Value, Mean", "setting": "[1]; [3]", "value": 79.07, "unit": "% predicted"}, {"measurement": "Sitting % predicted FVC Absolute Value, Median", "setting": "[1]; [3]", "value": 93.50, "unit": "% predicted"}, {"measurement": "FVC (% predicted) CFBL at Week 52", "setting": "[1]; ERT switch (ERT-experienced) population", "value": "−4.0 (0.9) % predicted"}, {"measurement": "FVC (% predicted) CFBL at Week 52", "setting": "[1]; ERT treatment naive population", "value": "−3.6", "unit": "% predicted"}, {"measurement": "FVC (% predicted) CFBL at Week 52", "setting": "[1]; ERT treatment naive population, listed as Alglucosidase alfa", "value": "−3.6 (1.8) % predicted"}, {"measurement": "absolute decline in percent-predicted FVC", "setting": "[1]; ERT-experienced", "value": 4.0, "unit": "%"}, {"measurement": "mean change in sitting % predicted FVC from baseline to Week 52", "setting": "[1]; ERT-naïve excluding Subject 4005-2511", "value": "−3.6", "unit": "%"}, {"measurement": "Change in sitting % predicted FVC baseline to Week 52, LS means (SE) from ANCOVA", "setting": "[1]; ITT-LOCF, ERT-naïve Population excluding Subject 4005-2511", "value": "−2.54 (2.758) % predicted"}, {"measurement": "CHG to Week 52 in sitting % predicted FVC, LS Mean", "setting": "[1]; ITT-OBS excluding Subject 4005-2511 (overall)", "value": "−3.7"}, {"measurement": "CHG to Week 52 in sitting % predicted FVC, LS Mean", "setting": "[1]; ITT-OBS excluding Subject 4005-2511, ERT-naïve Subjects", "value": "−2.4"}, {"measurement": "CHG to Week 52 in sitting % predicted FVC, LS Mean", "setting": "[1]; ITT-OBS, ERT-experienced Subjects", "value": "−3.8"}, {"measurement": "Sitting % predicted FVC Absolute Value, Mean (SD)", "setting": "[1]; [4]", "value": "63.47 (20.480) % predicted"}, {"measurement": "Sitting % predicted FVC Absolute Value, Median", "setting": "[1]; [4]", "value": 62.00, "unit": "% predicted"}, {"measurement": "Sitting % predicted FVC CHG, Mean (SD)", "setting": "[1]; [4]", "value": "−4.02 (5.009) % predicted"}, {"measurement": "Sitting % predicted FVC CHG, Median", "setting": "[1]; [4]", "value": "−3.25", "unit": "% predicted"}, {"measurement": "Sitting % Predicted FVC Absolute Value, Mean", "setting": "[1]; [5]", "value": 75.43, "unit": "% predicted"}, {"measurement": "Sitting % Predicted FVC CHG (change from baseline), Mean", "setting": "[1]; [5]", "value": "−3.64", "unit": "% predicted"}, {"measurement": "Sitting % Predicted FVC CHG (change from baseline), Median", "setting": "[1]; [5]", "value": "−3.00", "unit": "% predicted"}, {"measurement": "Sitting % predicted FVC Absolute Value, Median", "setting": "[1]; [5]", "value": 85.00, "unit": "% predicted"}, {"measurement": "Sitting % predicted FVC Absolute Value, Mean (SD)", "setting": "[1]; [6]", "value": "65.73 (21.109) % predicted"}, {"measurement": "Sitting % predicted FVC Absolute Value, Median", "setting": "[1]; [6]", "value": 69.00, "unit": "% predicted"}, {"measurement": "Sitting % predicted FVC CHG, Mean (SD)", "setting": "[1]; [6]", "value": "−3.95 (4.892) % predicted"}, {"measurement": "Sitting % predicted FVC CHG, Median", "setting": "[1]; [6]", "value": "−3.00", "unit": "% predicted"}, {"measurement": "Sitting % predicted FVC CHG, LS means (SE)", "setting": "[1]; ITT-LOCF excluding Subject 4005-2511", "value": "−3.70 (0.953) % predicted"}, {"measurement": "Sitting % predicted FVC CHG, LS means (SE)", "setting": "[1]; ITT-LOCF, ERT-experienced Population", "value": "−3.64 (1.019) % predicted"}, {"measurement": "FVC (% predicted) CFBL at Week 52", "setting": "[1]; overall ERT switch + ERT naïve population", "value": "−4.0 (0.8) % predicted"}, {"measurement": "absolute decline in percent-predicted FVC", "setting": "[1]; overall population", "value": 4.0, "unit": "%"}, {"measurement": "subjects without initial improvement during treatment", "setting": "[2]", "value": "> 30", "unit": "%"}]}]}
